# In the oligonucleotide strings, read from the 5' end, every base follows the letter of its sugar. An asterisk marks phosphorothioate; unmarked linkages are phosphodiester. Other units and linkages are bracketed, terminal groups are in braces. A string of capitals states the bases alone. e = 2'-O-(2-methoxyethyl) (MOE); [5mC] = 5-methylcytosine; d = 2'-deoxy (DNA)
# Legend:
# [1] = system: rabbit apolipoprotein B mRNA; assay: Inhibition of rabbit apolipoprotein B mRNA levels in primary rabbit hepatocytes, real-time PCR; assay type: cell-based; set-up: % INHIB of rabbit apolipoprotein B mRNA levels: concentration or dose not given beside the values
# Text: Primary rabbit hepatocytes were purchased from Invitro Technologies (Gaithersburg, Md.) and maintained in Dulbecco's modified Eagle's medium (Gibco). When purchased, the cells had been seeded into 96-well plates for use in RT-PCR analysis and were confluent.
# In accordance with the present invention, a series of oligonucleotides was designed to target different regions of rabbit apolipoprotein B, using published sequences (GenBank accession number X07480.1, incorporated herein as SEQ ID NO: 808, GenBank accession number M17780.1, incorporated herein as SEQ ID NO: 809, and a sequence was derived using previously described primers (Tanaka, Journ. Biol. Chem., 1993,268, 12713-12718) representing an mRNA of the rabbit apolipoprotein B, incorporated herein as SEQ ID NO: 810). “Target site” indicates the first (5′-most) nucleotide number on the particular target sequence to which the oligonucleotide binds. All compounds in Table 21 are chimeric oligonucleotides (“gapmers”) 20 nucleotides in length, composed of a central “gap” region consisting of ten 2′-deoxynucleotides, which is flanked on both sides (5′ and 3′ directions) by five-nucleotide “wings”. The wings are composed of 2′-methoxyethyl (2′-MOE)nucleotides. The internucleoside (backbone) linkages are phosphorothioate (P═S) throughout the oligonucleotide. All cytidine residues are 5-methylcytidines. The compounds were analyzed for their effect on rabbit apolipoprotein B mRNA levels in primary rabbit hepatocytes by quantitative real-time PCR as described in other examples herein. Primary rabbit hepatocytes were treated with 150 nM of the compounds in Table 21. For rabbit apolipoprotein B the PCR primers were: • forward primer: AAGCACCCCCAATGTCACC (SEQ ID NO: 811) • reverse primer: […] (SEQ ID NO: 812) and the PCR probe was: FAM-[…]-TAMRA (SEQ ID NO: 813) where FAM (PE-Applied Biosystems, Foster City, Calif.) is the fluorescent reporter dye) and TAMRA (PE-Applied Biosystems, Foster City, Calif.) is the quencher dye. Data are averages from two experiments. If present, “N.D.” indicates “no data”.
# In accordance with the present invention, a subset of the antisense oligonuclotides in Example 42 was further investigated in dose-response studies. Treatment doses were 10, 50, 150 and 300 nM. ISIS 233160 (SEQ ID NO: 824), ISIS 233166 (SEQ ID NO: 830), ISIS 233172 (SEQ ID NO: 835), ISIS 233175 (SEQ ID NO: 838), and ISIS 233183 (SEQ ID NO: 846) were analyzed for their effect on rabbit apolipoprotein B mRNA levels in primary rabbit hepatocytes by quantitative real-time PCR as described in other examples herein.
# [2] = system: human apolipoprotein B mRNA; assay: Inhibition of human apolipoprotein B mRNA levels in HepG2 cells, quantitative real-time PCR; assay type: cell-based; details: for % INHIB / % INHIB 50 nm / % INHIB 150 nm / % Change in apolipoprotein B mRNA expression / % inhibition of apolipoprotein B mRNA levels: HepG2 cells; for % INHIB (inhibition of human apolipoprotein B mRNA levels): HepG2 cells treated with 150 nM of compound, quantitative real-time PCR; for % inhibition of apolipoprotein B mRNA levels: normalized to untreated control, average of two experiments
# Method in brief: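 HepG2 cells at 80% confluency were transfected with antisense oligonucleotide using 3.75 μg/mL Lipofectin in Opti-MEM for 4-7 h and harvested 16-24 h after treatment. Apolipoprotein B mRNA was measured by real-time RT-PCR and normalized to GAPDH or RiboGreen total RNA. Percent inhibition came from untreated-control standard curves.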
# [3] = Table 1, 150 nM, averages from two experiments
# [4] = human apolipoprotein B mRNA, oligonucleotides targeting genomic sequence SEQ ID NO 334, averages from two experiments
# [5] = 50 nm oligonucleotide, variable deoxy gap position
# [6] = 150 nm oligonucleotide, variable deoxy gap position
# [7] = Table 11 gene walk, 50 nM, averages from two experiments
# [8] = Table 11 gene walk, 150 nM, averages from two experiments
substance,measurement,setting,value
233173 (antisense eT*eT*eG*eT*eG*dT*dT*d[5mC]*d[5mC]*dT*dT*dG*dA*dA*dG*e[5mC]*eG*eG*e[5mC]*e[5mC]) [compound 233173],% INHIB of rabbit apolipoprotein B mRNA levels,[1],3%
233165 (antisense eG*eT*eA*eG*eA*dT*dA*d[5mC]*dT*d[5mC]*d[5mC]*dA*dT*dT*dT*eT*eG*eG*e[5mC]*e[5mC]) [compound 233165],% INHIB of rabbit apolipoprotein B mRNA levels,[1],0%
233150 (antisense eG*e[5mC]*eG*eT*eT*dG*dT*d[5mC]*dT*d[5mC]*d[5mC]*dG*dA*dT*dG*eT*eT*e[5mC]*eT*eG) [compound 233150],% INHIB of rabbit apolipoprotein B mRNA levels,[1],20%
233190 (antisense eA*e[5mC]*eT*eT*eG*dA*dG*d[5mC]*dG*dT*dG*d[5mC]*d[5mC]*d[5mC]*dT*e[5mC]*eT*eA*eA*eT) [compound 233190],% INHIB of rabbit apolipoprotein B mRNA levels,[1],69%
233155 (antisense eA*e[5mC]*e[5mC]*eT*e[5mC]*dA*dG*dT*dG*dA*d[5mC]*dT*dT*dG*dT*eA*eA*eT*e[5mC]*eA) [compound 233155],% INHIB of rabbit apolipoprotein B mRNA levels,[1],47%
233176 (antisense eG*eA*eA*eA*eT*d[5mC]*dT*dG*dG*dA*dA*dG*dA*dG*dA*eG*eA*e[5mC]*e[5mC]*eT) [compound 233176],% INHIB of rabbit apolipoprotein B mRNA levels,[1],62%
233156 (antisense e[5mC]*eA*e[5mC]*eT*eG*dG*dA*dA*dA*d[5mC]*dT*dT*dG*dT*d[5mC]*eT*e[5mC]*eT*e[5mC]*e[5mC]) [compound 233156],% INHIB of rabbit apolipoprotein B mRNA levels,[1],23%
233154 (antisense e[5mC]*eA*eA*eT*eT*dG*dA*dA*dT*dG*dT*dA*d[5mC]*dT*d[5mC]*eA*eG*eA*eT*eA) [compound 233154],% INHIB of rabbit apolipoprotein B mRNA levels,[1],18%
233177 (antisense eG*eT*eA*eG*e[5mC]*dT*dT*dT*d[5mC]*d[5mC]*d[5mC]*dA*dT*d[5mC]*dT*eA*eG*eG*e[5mC]*eT) [compound 233177],% INHIB of rabbit apolipoprotein B mRNA levels,[1],0%
233181 (antisense eG*e[5mC]*eA*e[5mC]*e[5mC]*d[5mC]*dA*dG*dA*dA*dT*d[5mC]*dA*dT*dG*eG*e[5mC]*e[5mC]*eT*eG) [compound 233181],% INHIB of rabbit apolipoprotein B mRNA levels,[1],0%
233189 (antisense eG*e[5mC]*e[5mC]*eT*e[5mC]*dA*dA*dT*d[5mC]*dT*dG*dT*dT*dG*dT*eT*eT*e[5mC]*eA*eG) [compound 233189],% INHIB of rabbit apolipoprotein B mRNA levels,[1],46%
233179 (antisense eA*eT*eG*eT*eT*dG*d[5mC]*d[5mC]*d[5mC]*dA*dT*dG*dG*d[5mC]*dT*eG*eG*eA*eA*eT) [compound 233179],% INHIB of rabbit apolipoprotein B mRNA levels,[1],65%
233168 (antisense eG*eG*eA*e[5mC]*eT*dG*dT*dA*d[5mC]*d[5mC]*dT*d[5mC]*dA*dA*dG*e[5mC]*eT*eG*eG*eT) [compound 233168],% INHIB of rabbit apolipoprotein B mRNA levels,[1],0%
233162 (antisense eG*eT*eT*eG*e[5mC]*d[5mC]*dT*dT*dG*dT*dG*dA*dG*d[5mC]*dA*eG*e[5mC]*eA*eG*eT) [compound 233162],% INHIB of rabbit apolipoprotein B mRNA levels,[1],0%
233164 (antisense e[5mC]*eA*eT*eA*eT*dG*dT*d[5mC]*dT*dG*dA*dA*dG*dT*dT*eG*eA*eG*eA*e[5mC]) [compound 233164],% INHIB of rabbit apolipoprotein B mRNA levels,[1],8%
147826 (antisense eT*e[5mC]*eA*eG*eG*dG*dT*dG*dA*dG*d[5mC]*d[5mC]*d[5mC]*dT*dG*eT*eG*eT*eG*eT) [compound 147826],% INHIB,[2]; [3],80%
301148 (eA*eG*eA*eA*eA*dT*dT*dT*d[5mC]*dA*d[5mC]*dT*dA*dG*dA*eT*eA*eG*eA*eT; antisense) [compound 301148],% INHIB,[2]; [4],31%
301117 (antisense eT*eA*eG*eA*e[5mC]*dA*dA*dT*dT*dG*dA*dG*dA*d[5mC]*dT*e[5mC]*eA*eG*eA*eA) [compound 301117],% INHIB,[2]; [4],39%
"308653 (antisense GCCTCAGTCTGCTTCGCACC; 7-10-3 2'-MOE gapmer, phosphorothioate, chemistry not fully specified) [compound 308653]",% INHIB 50 nm,[2]; [5],73%
same,% INHIB 150 nm,[2]; [6],89%
"332782 (antisense TCAGTCTGCTTCGC; all phosphorothioate, sugars by position and methylation of C not given here; 2'-MOE wings flank a DNA gap) [compound 332782]",% Change in apolipoprotein B mRNA expression,"[2]; 10 nM, 24 hour (Table 41)",−16%
same,% Change in apolipoprotein B mRNA expression,"[2]; 50 nM, 24 hour (Table 41)",−16%
same,% Change in apolipoprotein B mRNA expression,"[2]; 150 nM, 24 hour (Table 41)",−69%
308613 (eT*eA*eG*eG*eT*dT*dA*d[5mC]*d[5mC]*dA*dG*d[5mC]*d[5mC]*dA*d[5mC]*eA*eT*eG*e[5mC]*eA; antisense) [compound 308613],% INHIB 50 nm,[2]; [7],43%
same,% INHIB 150 nm,[2]; [8],87%
147817 (antisense eG*e[5mC]*eA*eT*eG*dG*dT*d[5mC]*d[5mC]*d[5mC]*dA*dA*dG*dG*dA*eT*eG*eG*eT*e[5mC]) [compound 147817],% INHIB,[2]; [3],0%
"308631 (AGGTTACCAGCCACATGCAG; 0-10-10 MOE gapmer, phosphorothioate, chemistry not fully specified) [compound 308631]",% INHIB 50 nm,[2]; [5],74%
same,% INHIB 150 nm,[2]; [6],94%
281643 (eG*eA*e[5mC]*eA*eT*dT*dT*dG*d[5mC]*d[5mC]*dA*dT*dG*dG*dA*eG*eA*eG*eA*eG; antisense) [compound 281643],% INHIB (inhibition of human apolipoprotein B mRNA levels),[2]; averages from two experiments,61%
301186 (antisense e[5mC]*e[5mC]*eT*eT*e[5mC]*dT*dT*dT*dA*d[5mC]*d[5mC]*dT*dT*dA*dG*eG*eT*eG*eG*e[5mC]) [compound 301186],% INHIB,[2]; [4],37%
301227 (antisense eT*eA*eT*eT*e[5mC]*dT*dG*dT*dT*dA*d[5mC]*dT*dT*dA*dA*eA*eT*e[5mC]*eA*e[5mC]) [compound 301227],% INHIB,"[2]; Table 15, 150 nM, averages from two experiments",23%
301013 (e[5mC]*e[5mC]*e[5mC]*e[5mC]*eG*d[5mC]*dA*dG*dG*dT*d[5mC]*d[5mC]*d[5mC]*dG*dG*eT*eG*eG*eG*eA; antisense) [compound 301013],% INHIB (inhibition of human apolipoprotein B mRNA levels),[2]; averages from two experiments,82%
"308658 (antisense AGGTTACCAGCCACATGCAG; 9-10-1 2'-MOE gapmer, phosphorothioate, chemistry not fully specified) [compound 308658]",% inhibition of apolipoprotein B mRNA levels,[2]; 12.5 nM oligonucleotide,29%
same,% inhibition of apolipoprotein B mRNA levels,[2]; 37 nM oligonucleotide,61%
same,% inhibition of apolipoprotein B mRNA levels,[2]; 75 nM oligonucleotide,73%
same,% inhibition of apolipoprotein B mRNA levels,[2]; 150 nM oligonucleotide,78%
same,% inhibition of apolipoprotein B mRNA levels,[2]; 300 nM oligonucleotide,90%
same,% INHIB 50 nm,[2]; [5],86%
same,% INHIB 150 nm,[2]; [6],78%
308596 (antisense eA*eG*eT*e[5mC]*eT*dG*d[5mC]*dT*dT*d[5mC]*dG*d[5mC]*dA*d[5mC]*d[5mC]*eT*eT*e[5mC]*eT*eG) [compound 308596],% INHIB 50 nm,[2]; [7],81%
same,% INHIB 150 nm,[2]; [8],94%
"332776 (antisense GCCTAATTATTATTATCACC; sugars from the 5' end e5 d10 e5, all phosphorothioate, methylation of C not given here) [compound 332776]",% Change in apolipoprotein B mRNA expression,"[2]; 50 nM, 24 hour (Table 40)",+10%
same,% Change in apolipoprotein B mRNA expression,"[2]; 150 nM, 24 hour (Table 40)",+20%

# Source: US7803930B2, “Antisense modulation of apolipoprotein B-expression” (Isis Pharmaceuticals, Inc., priority 2002, dated 2010)
